According to US9187465B2, “Oxazole tyrosine kinase inhibitors” (Sareum Limited, priority 2007, dated 2015):

Experiments:
[1] = target: T1, human FLT3 (Homo sapiens, UniProt P36888); test: FLT3 kinase assay (DELFIA enzyme inhibition); type: biochemical
T1 construct: a construct expressing the human FLT3 (564-993) with an amino terminal GST tag; host or cells: Sf9 insect cells (baculovirus)
T1 sequence (P36888 564-993): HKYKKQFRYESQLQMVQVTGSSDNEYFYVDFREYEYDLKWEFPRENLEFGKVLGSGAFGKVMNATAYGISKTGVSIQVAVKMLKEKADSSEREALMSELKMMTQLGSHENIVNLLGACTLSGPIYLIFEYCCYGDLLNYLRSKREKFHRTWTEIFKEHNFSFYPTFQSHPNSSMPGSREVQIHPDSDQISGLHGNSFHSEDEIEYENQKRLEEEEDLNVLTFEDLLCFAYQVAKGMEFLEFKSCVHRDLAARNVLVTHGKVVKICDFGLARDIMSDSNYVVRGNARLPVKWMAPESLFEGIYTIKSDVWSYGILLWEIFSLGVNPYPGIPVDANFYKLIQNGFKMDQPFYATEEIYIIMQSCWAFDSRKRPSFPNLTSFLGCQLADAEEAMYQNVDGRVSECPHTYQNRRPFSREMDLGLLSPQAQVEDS
Outline: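 GST-tagged human FLT3 (564-993), expressed in sf9 cells, phosphorylated a biotinylated Gastrin Precursor (Tyr 87)-derived peptide for 30 min at room temperature before EDTA stop. The captured peptide was detected by Eu-labelled anti-phosphotyrosine DELFIA time-resolved fluorescence. IC50 was derived from % inhibition curves.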

[2] = system: HCT116 cells; test: Anti-proliferative activity, Alamar Blue assay, HCT116; type: cell-based; details: Homo sapiens, HCT-116, 72 hours, read-out: cell proliferation IC50
Experimental: (§1) The anti-proliferative activities of compounds of the invention are determined by measuring the ability of the compounds to inhibition of cell growth in a number of cell lines. Inhibition of cell growth is measured using the Alamar Blue assay (Nociari et al., Journal of Immunological Methods (1998) 213, 157-167). The method is based on the ability of viable cells to reduce resazurin to its fluorescent product resorufin. For each proliferation assay cells are plated onto 96 well plates and allowed to recover for 16 hours prior to the addition of inhibitor compounds for a further 72 hours. At the end of the incubation period 10% (v/v) Alamar Blue is added and incubated for a further 6 hours prior to determination of fluorescent product at Excitation 535 nm and Emission 590 nm. In the case of the non-proliferating cell assay cells are maintained at confluence for 96 hour prior to the addition of inhibitor compounds for a further 72 hours. The number of viable cells is determined by Alamar Blue assay as before. All cell lines are obtained from ECACC (European Collection of cell Cultures).

[3] = target: T2, human Aurora A (Homo sapiens, UniProt O14965); test: Aurora A kinase assay (DELFIA enzyme inhibition); type: biochemical; details: read-out: Aurora A IC50
T2 construct: Histidine tag (N); host or cells: Sf9 insect cells (baculovirus)
T2 sequence (O14965 1-403): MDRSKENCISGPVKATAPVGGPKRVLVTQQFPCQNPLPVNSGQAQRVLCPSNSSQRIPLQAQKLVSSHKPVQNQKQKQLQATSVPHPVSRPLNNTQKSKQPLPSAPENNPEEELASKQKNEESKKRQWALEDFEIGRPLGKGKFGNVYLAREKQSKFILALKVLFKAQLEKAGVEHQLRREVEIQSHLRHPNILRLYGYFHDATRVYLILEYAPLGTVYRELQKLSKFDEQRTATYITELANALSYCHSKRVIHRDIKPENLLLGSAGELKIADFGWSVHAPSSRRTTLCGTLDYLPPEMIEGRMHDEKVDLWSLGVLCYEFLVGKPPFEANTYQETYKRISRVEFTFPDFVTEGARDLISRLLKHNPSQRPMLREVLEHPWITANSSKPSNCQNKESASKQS
Outline: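 DELFIA read-out (time-resolved Eu fluorescence, 620 nm emission) after Neutravidin capture of biotinylated peptide substrate and antibody detection. Reaction: Ni-agarose-purified Aurora A, 30 min at room temperature, stopped with 100 mM EDTA.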

[4] = target: T3, human FLT4 (Homo sapiens, UniProt P35916); test: FLT4 kinase assay (DELFIA enzyme inhibition); type: biochemical; details: read-out: FLT4 IC50
T3 construct: a construct expressing the human FLT4 (789-1207) with an amino terminal GST tag; host or cells: Sf9 insect cells (baculovirus)
Outline: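 GST-tagged human FLT4 (789-1207) from Sf9 cells phosphorylates a biotinylated MET (Tyr1253)-derived peptide for 30 min at room temperature, stopped with EDTA. Phosphopeptide is captured on Neutravidin and detected with Eu-labelled anti-phosphotyrosine antibody by time-resolved fluorescence; IC50 from % inhibition curves.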

[5] = system: A549 human lung carcinoma cells; test: Anti-proliferative activity, Alamar Blue assay, A549; type: cell-based; details: A549, 72 h, read-out: cell growth IC50
Experimental: as §1

T3 sequence (P35916 789-1207): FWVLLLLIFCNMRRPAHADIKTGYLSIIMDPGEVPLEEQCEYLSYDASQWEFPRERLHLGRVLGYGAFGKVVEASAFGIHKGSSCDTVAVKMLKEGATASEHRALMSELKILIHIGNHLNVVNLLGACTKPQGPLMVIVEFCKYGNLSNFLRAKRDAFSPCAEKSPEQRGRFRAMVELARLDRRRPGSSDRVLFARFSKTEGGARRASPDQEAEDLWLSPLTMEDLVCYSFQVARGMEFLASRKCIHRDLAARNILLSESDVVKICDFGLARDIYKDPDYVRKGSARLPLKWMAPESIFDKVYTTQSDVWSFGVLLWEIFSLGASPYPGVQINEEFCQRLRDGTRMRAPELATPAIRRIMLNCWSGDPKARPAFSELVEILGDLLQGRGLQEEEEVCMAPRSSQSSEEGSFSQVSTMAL

IC50 [1] [µM]	IC50 [2] [µM]	IC50 [3] [µM]	IC50 [4] [µM]	IC50 [5] [µM]	Compound
< 10	< 10	< 10	< 10		NC(=O)c1nc(-c2c(F)cccc2F)oc1-c1ccc(OCCN2CCOCC2)cc1 [Example F-13, 2-(2,6-difluorophenyl)-5-(4-(2-morpholinoethoxy)phenyl)oxazole-4-carboxamide]
< 10	< 10	< 10	< 10		CNC(=O)N1CCN(c2ccc(Nc3oc(-c4c(F)cccc4F)nc3C(N)=O)cc2)CC1 [Example J-3, 4-(4-(4-carbamoyl-2-(2,6-difluorophenyl)oxazol-5-ylamino)phenyl)-N-methylpiperazine-1-carboxamide]
< 10	< 10	< 10	< 10		CN1CCN(c2ccc(Nc3oc(-c4c(F)cccc4F)nc3C(N)=O)cc2)CC1 [Example Q-7, 2-(2,6-difluorophenyl)-5-(4-(4-methylpiperazin-1-yl)phenylamino)oxazole-4-carboxamide]
< 10	< 10	< 10	< 10		NC(=O)c1nc(-c2c(F)cccc2F)oc1Nc1ccc(OCCN2CCOCC2)cc1 [Example Q-8, 2-(2,6-difluorophenyl)-5-(4-(2-morpholinoethoxy)phenylamino)oxazole-4-carboxamide]
< 10	< 10	< 10	< 10		CC(=O)N1CCN(c2ccc(Nc3oc(-c4c(F)cccc4F)nc3C(N)=O)cc2)CC1 [Example Q-9, 5-(4-(4-acetylpiperazin-1-yl)phenylamino)-2-(2,6-difluorophenyl)oxazole-4-carboxamide]
< 10		< 10	< 10	< 10	CN(C)S(=O)(=O)c1ccc(Nc2oc(-c3c(F)cccc3F)nc2C(N)=O)cc1 [Example Q-26, 2-(2,6-difluorophenyl)-5-(4-(N′,N′-dimethylsulfonamide)phenylamino)oxazole-4-carboxamide]
< 100		< 100	< 10	< 10	NC(=O)c1nc(-c2c(F)cccc2F)oc1Nc1ccc(S(=O)(=O)N2CCCCC2)cc1 [Example Q-28, 2-(2,6-difluorophenyl)-5-(4-(piperidin-1-ylsulfonyl)phenylamino)oxazole-4-carboxamide]
< 10	< 10	< 10	< 10		COc1ccccc1Nc1nc(C(N)=O)c(-c2ccc(N3CCNCC3)cc2)o1 [Example R-11, 2-(2-methoxyphenylamino)-5-(4-(piperazin-1-yl)phenyl)oxazole-4-carboxamide]
< 10		< 10	< 10		CN1CCC(NC(=O)c2ccc(Nc3oc(-c4c(F)cccc4F)nc3C(N)=O)cc2)CC1 [Example U-18, 5-(4-((1-methylpiperidin-4-yl)carbamoyl)phenylamino)-2-(2,6-difluorophenyl) oxazole-4-carboxamide]
< 10		< 10	< 10		NC(=O)c1nc(-c2c(F)cccc2F)oc1Nc1ccc(C(=O)N2CCOCC2CO)cc1 (centres unmarked) [Example U-19, 2-(2,6-difluorophenyl)-5-(4-(3-(hydroxymethyl)morpholine-4-carbonyl)phenylamino)oxazole-4-carboxamide]
< 10		< 100	< 10		CC(C)(C)OC(=O)N1CCC(NC(=O)c2ccc(Nc3oc(-c4c(F)cccc4F)nc3C(N)=O)cc2)CC1 [Example U-20, tert-butyl 4-(4-(4-carbamoyl-2-(2,6-difluorophenyl)oxazol-5-ylamino)benzamido) piperidine-1-carboxylate]
< 10		< 10	< 10		NC(=O)c1nc(-c2c(F)cccc2F)oc1Nc1ccc(C(=O)NC2CCNCC2)cc1 [Example U-21, 2-(2,6-difluorophenyl)-5-(4-(piperidin-4-ylcarbamoyl)phenylamino)oxazole-4-carboxamide]
< 10		< 10	< 10		CC(C)(C)OC(=O)NCC1CN(C(=O)c2ccc(Nc3oc(-c4c(F)cccc4F)nc3C(N)=O)cc2)CCO1 (centres unmarked) [Example U-22, tert-butyl (4-(4-(4-carbamoyl-2-(2,6-difluorophenyl)oxazol-5-ylamino)benzoyl)morpholin-2-yl)methylcarbamate]
< 10		< 10	< 10		NCC1CN(C(=O)c2ccc(Nc3oc(-c4c(F)cccc4F)nc3C(N)=O)cc2)CCO1 (centres unmarked) [Example U-23, 5-(4-(2-(aminomethyl)morpholine-4-carbonyl)phenylamino)-2-(2,6-difluorophenyl) oxazole-4-carboxamide]
< 10		< 10	< 10		CN1CCN(C(=O)c2ccc(Nc3oc(-c4c(F)cccc4F)nc3C(N)=O)cc2)CC1CCO (centres unmarked) [Example U-24, 2-(2,6-difluorophenyl)-5-(4-(2-(2-hydroxyethyl)-1-methylpiperazine-4-carbonyl)phenylamino)oxazole-4-carboxamide]
< 10		< 10	< 10		CN1CCN(C(=O)c2ccc(Nc3oc(-c4c(F)cccc4F)nc3C(N)=O)cc2)CC1CO (centres unmarked) [Example U-25, 2-(2,6-difluorophenyl)-5-(4-(2-(hydroxymethyl)-1-methylpiperazine-4-carbonyl)phenylamino)oxazole-4-carboxamide]
< 10		< 10	< 10		CN1CCN(C(=O)c2ccc(Nc3oc(-c4c(F)cccc4F)nc3C(N)=O)cc2)[C@@H](CO)C1 [Example U-26, (R)-2-(2,6-difluorophenyl)-5-(4-(3-(hydroxymethyl)-1-methylpiperazine-4-carbonyl)phenylamino)oxazole-4-carboxamide]
< 10		< 10	< 10		CN1CCN(C(=O)c2ccc(Nc3oc(-c4c(F)cccc4F)nc3C(N)=O)cc2)[C@H](CO)C1 [Example U-27, (S)-2-(2,6-difluorophenyl)-5-(4-(3-(hydroxymethyl)-1-methylpiperazine-4-carbonyl)phenylamino)oxazole-4-carboxamide]
< 10		< 10	< 10		CN1CCN(C(=O)Nc2ccc(Nc3oc(-c4c(F)cccc4F)nc3C(N)=O)cc2)CC1 [Example V-2, N-(4-(4-carbamoyl-2-(2,6-difluorophenyl)oxazol-5-ylamino)phenyl)-4-methyl piperazine-1-carboxamide]
< 10		< 10	< 10		CNCCC(=O)Nc1ccc(Nc2oc(-c3c(F)cccc3F)nc2C(N)=O)cc1 [Example V-3, 2-(2,6-difluorophenyl)-5-(4-(3-(methylamino)propanamido)phenylamino)oxazole-4-carboxamide]
< 10		< 10	< 10		NC(=O)c1nc(-c2c(F)cccc2F)oc1Nc1ccc(NC(=O)C2CCCNC2)cc1 (centres unmarked) [Example V-4, N-(4-(4-carbamoyl-2-(2,6-difluorophenyl)oxazol-5-ylamino)phenyl)piperidine-3-carboxamide]
